Calls of active or inactive are those of the source. The rule behind the calls is not given here.

We go through one molecule from ChEMBL document CHEMBL1148967, “Correction of the structure of a new sesquiterpene from Cistus creticus ssp. creticus” (J Nat Prod, 2004).

One data set deals with MCF7. The experiment in a line: Cytotoxicity against human MCF7 cells assessed as reduction in growth rate at 100 uM after 48 hrs. It counts as functional. Further details: scale not given: the % may be the effect or the level left.
The test system of a further data set is NCI-H460. The experiment in a line: Cytotoxicity against human H460 cells assessed as reduction in growth rate at 100 uM after 48 hrs. It counts as functional. On the set-up: scale not given: the % may be the effect or the level left.
Another data set concerns SF-268. As to the kind of experiment: Cytotoxicity against human SF268 cells assessed as reduction in growth rate at 100 uM after 48 hrs. It counts as functional, cell-based.
In a further data set the test system is PBMC. As to the kind of experiment: Cytotoxicity against human PBMC assessed as reduction in growth rate at 100 uM after 48 hrs. It counts as cell-based.

Turning to `C=C(C)[C@H]1CC=C2CCC[C@@H](C)[C@]2(C)C1`, the Activity was 93.6% in the data set with MCF7, 80.8% in the data set with NCI-H460 and “Non-toxic” in the data set with PBMC. The outcome with SF-268 was inactive.
